Data taken from ChEMBL document CHEMBL4251694 (ACS Med Chem Lett, 2018).

What was measured:
[1] = test system: Influenza A virus; experiment: Antiviral activity against Influenza A virus A/WSN/33 H1N1 harboring N31S mutant infected in MDCK cells assessed as reduction in virus-induced cytopathic effect by crystal violet staining based light-microscopic analysis; format: functional, organism-based, A/WSN/1933(H1N1)
[2] = target: Matrix protein 2 (Influenza A virus (A/Udorn/307/1972(H3N2)), UniProt P0DOF8, S31N); experiment: Binding affinity to Influenza A virus A/Udorn/72 M2 proton channel S31N mutant expressed in Xenopus laevis oocytes at pH 5.5 by two-electrode voltage clamp assay; format: cell-based, Influenza A virus (A/udorn/1972(H3N2))
[3] = target: Matrix protein 2 (Influenza A virus (A/Udorn/307/1972(H3N2)), UniProt P0DOF8, S31N); experiment: Binding affinity to Influenza A virus A/Udorn/72 M2 proton channel S31N mutant by isothermal calorimetric titration; set-up: species or system Influenza A virus (A/udorn/1972(H3N2))

Row | SMILES | EC50 [1] [µM] | Kd [2] [µM] | Kd [3] [µM]
1 | CCOC(=O)C1=C[C@@H](OC(CC)CC)[C@H](NC(C)=O)[C@@H](N)C1 [OSELTAMIVIR] | 0.02 | – | –
2 | C[C@H](N)C12CC3CC(CC(C3)C1)C2 | 0.02 | – | –
3 | CC(N)C12CC3CC(CC(C3)C1)C2 (stereo unspecified) [RIMANTADINE] | 0.04 | – | –
4 | NC12CC3CC(CC(C3)C1)C2 [AMANTADINE] | 0.48 | – | –
5 | C[C@@H](N)C12CC3CC(CC(C3)C1)C2 | 0.04 | – | –
6 | CCC(N)(CC)C12CC3CC(CC(C3)C1)C2 | 1.01 | – | –
7 | CC(C)(N)C12CC3CC(CC(C3)C1)C2 | 0.03 | 444 | –
8 | CCCC(N)(CCC)C12CC3CC(CC(C3)C1)C2 | 1.06 | 1800 | > 10
